EC50 data for eleven compounds are collected here from patent US20240360081A1, “SULFONAMIDE OREXIN RECEPTOR AGONISTS AND USES THEREOF” (Jazz Pharmaceuticals Ireland Limited, priority 2021, published 2024).

In this assay the target is T1, human recombinant OX2 (hOX2) receptor expressed in CHO cells (Homo sapiens, UniProt O43614).
T1 construct: host or cells: CHO cells (hOX2-CHO)
T1 sequence (O43614 1-444): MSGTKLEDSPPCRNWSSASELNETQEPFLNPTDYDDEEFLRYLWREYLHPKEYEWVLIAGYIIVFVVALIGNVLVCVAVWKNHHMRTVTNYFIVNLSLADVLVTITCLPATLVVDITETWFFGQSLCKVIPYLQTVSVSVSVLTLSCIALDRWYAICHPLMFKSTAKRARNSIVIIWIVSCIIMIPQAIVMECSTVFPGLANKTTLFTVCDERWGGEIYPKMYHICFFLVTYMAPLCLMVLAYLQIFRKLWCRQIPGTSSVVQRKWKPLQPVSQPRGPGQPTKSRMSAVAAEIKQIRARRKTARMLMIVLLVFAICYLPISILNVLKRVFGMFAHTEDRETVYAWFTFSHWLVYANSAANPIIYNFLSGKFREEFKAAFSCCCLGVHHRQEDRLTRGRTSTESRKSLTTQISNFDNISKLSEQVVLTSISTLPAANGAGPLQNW
The assay can be described thus: IP-1 accumulation assay (IP-One HTRF) in hOX2-CHO cells. Type of assay: cell-based. The note with it: 60 min at 37° C., 11 points CRC, response as % of maximal OX-A response. An outline of the steps:
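CHO cells expressing hOX2, 20,000 cells/well in HBSS with 20 mM HEPES pH 7.4, 50 mM LiCl, 0.1% BSA; 11-point compound series, 0.5% DMSO final, 60 min at 37 °C. IP-1 by HTRF (665/615 ratio) after 60 min at room temperature, as % of maximal OX-A response; EC50 by four-parameter logistic fit, mean of ≥2 experiments in duplicate.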
In general terms: TR-FRET usually uses a lanthanide donor and a delayed reading to cut background.
What is called EC50 is the concentration that produces a half-maximal response. In the case of `Cc1cc(C)[n+]([O-])c(C(CNS(C)(=O)=O)CO[C@H]2CC[C@@H](c3ccccc3)CC2)c1` (stereo partly drawn) [Example 5j, 2-(1-methanesulfonamido-3-{[(CIS)-4-phenylcyclohexyl]oxy}propan-2-yl)-4,6-dimethylpyridin-1-ium-1-olate], the EC50 is less than 100 nM.
With `Cc1cc(C(CNS(=O)(=O)CF)CO[C@H]2CC[C@@H](c3cccc(F)c3)CC2)c(=O)n(C)c1` (stereo partly drawn) [Example 5m, N-[2-(1,5-dimethyl-2-oxo-1,2-dihydropyridin-3-yl)-3-{[(CIS)-4-(3-fluorophenyl)cyclohexyl]oxy}propyl]-1-fluoromethanesulfonamide] the figure was less than 100 nM; with `Cc1cc(C(CNS(C)(=O)=O)COC2CCN(c3ncc(F)cn3)CC2)c(=O)n(C)c1` (centres unmarked) [Example 5p, N-[2-(1,5-dimethyl-2-oxo-1,2-dihydropyridin-3-yl)-3-{[1-(5-fluoropyrimidin-2-yl)piperidin-4-yl]oxy}propyl]methanesulfonamide], greater than 10000 nM; with `Cc1cc(C(CNS(=O)(=O)N(C)C)CO[C@H]2CC[C@@H](c3cccc(F)c3)CC2)c(=O)n(C)c1` (stereo partly drawn) [Example 5q, 3-{1-[(dimethylsulfamoyl)amino]-3-{[(CIS)-4-(3-fluorophenyl)cyclohexyl]oxy}propan-2-yl}-1,5-dimethyl-1,2-dihydropyridin-2-one], less than 100 nM.
With `Cc1cc(C(CNS(=O)(=O)N(C)C)CO[C@H]2CC[C@@H](c3cc(F)cc(F)c3)CC2)c(=O)n(C)c1` (stereo partly drawn) [Example 5u, 3-{1-[(dimethylsulfamoyl)amino]-3-{[(CIS)-4-(3,5-difluorophenyl)cyclohexyl]oxy}propan-2-yl}-1,5-dimethyl-1,2-dihydropyridin-2-one] the figure was less than 100 nM; with `Cc1cc(C(CNS(C)(=O)=O)CO[C@H]2CC[C@@H](c3cccc(F)c3)CC2)c(=O)n(C2CC2)c1` (stereo partly drawn) [Example 5v, N-[2-(1-cyclopropyl-5-methyl-2-oxo-1,2-dihydropyridin-3-yl)-3-{[(CIS)-4-(3-fluorophenyl)cyclohexyl]oxy}propyl]methanesulfonamide], less than 100 nM; with `Cc1cc(C(CNS(C)(=O)=O)CO[C@H]2CC[C@@H](c3cccc(F)c3)CC2)c(=O)n(CC(F)F)c1` (stereo partly drawn) [Example 5w, N-{2-[1-(2,2-difluoroethyl)-5-methyl-2-oxo-1,2-dihydropyridin-3-yl]-3-{[(CIS)-4-(3-fluorophenyl)cyclohexyl]oxy}propyl}methanesulfonamide], less than 100 nM.
For `Cc1cc(C(CNS(C)(=O)=O)CO[C@H]2CC[C@@H](c3cccc(F)c3)CC2)c(=O)n(C(F)F)c1` (stereo partly drawn) [Example 5x, N-{2-[1-(difluoromethyl)-5-methyl-2-oxo-1,2-dihydropyridin-3-yl]-3-{[(CIS)-4-(3-fluorophenyl)cyclohexyl]oxy}propyl}methanesulfonamide] the value was less than 100 nM.
Take `Cc1cc(-c2cccnc2)cn(C(CNS(C)(=O)=O)CO[C@H]2CC[C@@H](c3ccccc3)CC2)c1=O` (stereo partly drawn) [Example 6a, N-(2-{5-methyl-6-oxo-1,6-dihydro-[3,3′-bipyridin]-1-yl}-3-{[(CIS)-4-phenylcyclohexyl]oxy}propyl) methanesulfonamide]: the half-maximal effective concentration (EC50) was in the range of 1000 to 10000 nM.
With `Cc1cc(-n2cccn2)cn(C(CNS(C)(=O)=O)CO[C@H]2CC[C@@H](c3ccccc3)CC2)c1=O` (stereo partly drawn) [Example 7a, N-{2-[3-methyl-2-oxo-5-(1H-pyrazol-1-yl)-1,2-dihydropyridin-1-yl]-3-{[(CIS)-4-phenylcyclohexyl]oxy}propyl}methanesulfonamide], the EC50 is 100 to 1000 nM.
For `CS(=O)(=O)NCC(Cc1cccc(-c2ccccc2)c1)n1ccccc1=O` (centres unmarked) [Example 8a, N-(3-{[1,1′-biphenyl]-3-yl}-2-(2-oxo-1,2-dihydropyridin-1-yl)propyl)methanesulfonamide] the value was greater than 10000 nM.
